Reference: BindingDB's records for patent US11098029 (Merck Sharp & Dohme, 2021)

molecular target: T1, Orexin receptor type 2 (Homo sapiens, UniProt O43614); assay: Receptor Activity Assay
T1 sequence (O43614 whole entry): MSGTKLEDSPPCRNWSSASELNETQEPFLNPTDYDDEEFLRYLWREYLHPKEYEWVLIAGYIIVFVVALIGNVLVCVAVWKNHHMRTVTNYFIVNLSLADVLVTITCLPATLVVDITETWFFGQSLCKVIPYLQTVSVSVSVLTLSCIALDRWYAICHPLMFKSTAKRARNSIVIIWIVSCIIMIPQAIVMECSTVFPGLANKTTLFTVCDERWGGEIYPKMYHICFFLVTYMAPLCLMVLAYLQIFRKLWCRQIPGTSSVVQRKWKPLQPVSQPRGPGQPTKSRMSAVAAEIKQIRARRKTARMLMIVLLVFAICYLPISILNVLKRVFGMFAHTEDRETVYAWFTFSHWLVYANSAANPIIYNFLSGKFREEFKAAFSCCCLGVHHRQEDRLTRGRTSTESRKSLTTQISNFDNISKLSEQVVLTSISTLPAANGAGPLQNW
Description: In a typical experiment, the OX1 and OX2 receptor agonist activity is determined in accordance with the following general experimental method.

Question: `CC[C@@H]1C[C@H](NS(C)(=O)=O)[C@H](CO[C@H]2CC[C@@H](c3ccccc3)CC2)N1C(=O)OC` (racemic) [US11098029, Example 43] was tested. Which IC50 did it give?
Answer: 8.1 nM

Question: Which IC50 does the source give for `CCNC(=O)N1[C@H](C)C[C@H](NS(C)(=O)=O)[C@@H]1COC1CCC(C(F)(F)F)CC1` (some centres not stated) [US11098029, Example 2] here?
Answer: 117 nM

Question: With `COC(=O)N1[C@H](C)C[C@H](NS(C)(=O)=O)[C@@H]1COC1CCC(C(C)C)CC1` (some centres not stated) [US11098029, Example 3] as the compound, how does the IC50 read?
Answer: 19.3 nM

Question: How did the IC50 turn out when `CC(C)OC(=O)N1[C@H](C)C[C@H](NS(C)(=O)=O)[C@@H]1COC1CCC(C(C)C)CC1` (some centres not stated) [US11098029, Example 5] was run?
Answer: 227 nM

Question: For `CCOC(=O)N1[C@H](C)C[C@H](NS(=O)(=O)N(C)C)[C@@H]1COC1CCC(C(C)C)CC1` (some centres not stated) [US11098029, Example 8], which IC50 is on record?
Answer: 9.52 nM

Question: `CC(C)C1CCC(OC[C@H]2[C@@H](NS(C)(=O)=O)C[C@@H](C)N2C(=O)OCC(F)F)CC1` (some centres not stated) [US11098029, Example 9] was tested. Which IC50 did it give?
Answer: 8.57 nM

Question: `CC(C)C1CCC(OC[C@H]2[C@@H](NS(C)(=O)=O)C[C@@H](C)N2C(=O)OCCF)CC1` (some centres not stated) [US11098029, Example 10] was tested. Which IC50 did it give?
Answer: 69.3 nM

Question: With `COC(=O)N1[C@H](C)C[C@H](NS(=O)(=O)N(C)C)[C@@H]1COC1CCC(C(F)(F)F)CC1` (some centres not stated) [US11098029, Example 11] as the compound, how does the IC50 read?
Answer: 264 nM

Question: For `COC(=O)N1[C@H](C)C[C@H](NS(C)(=O)=O)[C@@H]1COC1CCC(CC(F)(F)F)CC1` (some centres not stated) [US11098029, Example 12], which IC50 is on record?
Answer: 390 nM

Question: Which IC50 does the source give for `CNS(=O)(=O)N[C@H]1C[C@@H](C)N(C(=O)OCC(F)F)[C@H]1COC1CCC(C(C)C)CC1` (some centres not stated) [US11098029, Example 13] here?
Answer: 1.9 nM

Question: With `CC(C)C1CCC(OC[C@H]2[C@@H](NS(=O)(=O)N(C)C)C[C@@H](C)N2C(=O)OCC(F)F)CC1` (some centres not stated) [US11098029, Example 14] as the compound, how does the IC50 read?
Answer: 2.5 nM

Question: How did the IC50 turn out when `COC(=O)N1[C@H](C)C[C@H](NS(=O)(=O)N(C)CCS(C)(=O)=O)[C@@H]1COC1CCC(c2cccc(F)c2)CC1` (some centres not stated) [US11098029, Example 57] was run?
Answer: 1.6 nM
